The values that follow come from ChEMBL document CHEMBL1124285, “Conformational analysis and structural comparisons of (1R,3S)-(+)- and (1S,3R)-(-)-tefludazine, (S)-(+)- and (R)-(-)-octoclothepin, and (+)-dexclamol in relation to dopamine receptor antagonism and amine-uptake inhibition” (J Med Chem, 1988).

One may read the IC50 as the concentration that inhibits the measured activity by half. Lower therefore signals inhibition by little substance.

The species entered for assay [1] is Rattus norvegicus. In words: Inhibition of [3H]norepinephrine uptake in rat brain synaptosomes. The format is functional, organism-based.
For assay [2], the species on record is Rattus norvegicus. In words: Inhibition of [3H]-dopamine uptake in rat brain synaptosomes. Type of assay: functional, organism-based.
Assay [3] addresses D(2) dopamine receptor (Rattus norvegicus, UniProt P61169). In words: Binding affinity against Dopamine receptor D2 using [3H]spiroperidol.

Sequence of D(2) dopamine receptor (P61169 whole entry): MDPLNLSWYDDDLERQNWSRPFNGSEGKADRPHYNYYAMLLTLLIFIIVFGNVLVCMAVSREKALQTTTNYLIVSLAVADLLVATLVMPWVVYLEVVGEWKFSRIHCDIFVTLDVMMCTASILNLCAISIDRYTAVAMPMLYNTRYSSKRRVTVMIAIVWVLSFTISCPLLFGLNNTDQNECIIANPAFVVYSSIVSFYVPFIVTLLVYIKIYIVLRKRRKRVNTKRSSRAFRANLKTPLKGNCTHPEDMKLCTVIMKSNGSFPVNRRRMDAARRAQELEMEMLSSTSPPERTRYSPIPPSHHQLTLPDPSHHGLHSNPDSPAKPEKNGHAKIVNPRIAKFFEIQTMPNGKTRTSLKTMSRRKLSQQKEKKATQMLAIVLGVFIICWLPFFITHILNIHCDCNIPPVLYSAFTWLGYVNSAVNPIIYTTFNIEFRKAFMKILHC

Turning to `CN1CCN(C2Cc3ccccc3Sc3ccc(Cl)cc32)CC1` (racemic) [CLOROTEPINE], the IC50 in assay [1] (Rattus norvegicus, Brain, 3 h) turned out to be 0.64 nM; in assay [2] (Rattus norvegicus, Brain, 3 h), 6300 nM.

In the case of `CC(C)[C@]1(O)CCN2C[C@H]3c4ccccc4CCc4cccc(c43)[C@@H]2C1`, the IC50 in assay [3] came out at 6 nM.

On to `OCCN1CCN([C@@H]2C[C@@H](c3ccc(F)cc3)c3ccc(C(F)(F)F)cc32)CC1` [TEFLUDAZINE], for which the IC50 in assay [1] (Rattus norvegicus, Brain, 3 h) came to 15000 nM; in assay [2] (Rattus norvegicus, Brain, 3 h), 2200 nM; in assay [3], 14 nM.

As for `OCCN1CCN([C@H]2C[C@H](c3ccc(F)cc3)c3ccc(C(F)(F)F)cc32)CC1`, the IC50 in assay [1] (Rattus norvegicus, Brain, 3 h) is 730 nM; in assay [2] (Rattus norvegicus, Brain, 3 h), 130 nM; in assay [3], 590 nM.

Take `CC(C)[C@@]1(O)CCN2C[C@@H]3c4ccccc4CCc4cccc(c43)[C@H]2C1` [DEXCLAMOL]: the IC50 in assay [3] was 900 nM.

For the molecule (-)-BUTACLAMOL, the values for the IC50 in assay [1] and in assay [2] were 7400 nM and 9500 nM, respectively.
